# Experimental data from ChEMBL document CHEMBL4261644, “Novel Symmetrical Benzazolyl Derivatives Endowed with Potent Anti-Heparanase Activity” (J Med Chem, 2018).
# Calls of active or inactive are those of the source. No cut-off for these calls is given here.
# Legend:
# Heparanase = target: T1, Heparanase (Homo sapiens, UniProt Q9Y251); experiment: Inhibition of recombinant HPSE (unknown origin) using fondaparinux as substrate incubated for 3 hrs in absence of light by WST1 assay
# T1 sequence (Q9Y251 whole entry): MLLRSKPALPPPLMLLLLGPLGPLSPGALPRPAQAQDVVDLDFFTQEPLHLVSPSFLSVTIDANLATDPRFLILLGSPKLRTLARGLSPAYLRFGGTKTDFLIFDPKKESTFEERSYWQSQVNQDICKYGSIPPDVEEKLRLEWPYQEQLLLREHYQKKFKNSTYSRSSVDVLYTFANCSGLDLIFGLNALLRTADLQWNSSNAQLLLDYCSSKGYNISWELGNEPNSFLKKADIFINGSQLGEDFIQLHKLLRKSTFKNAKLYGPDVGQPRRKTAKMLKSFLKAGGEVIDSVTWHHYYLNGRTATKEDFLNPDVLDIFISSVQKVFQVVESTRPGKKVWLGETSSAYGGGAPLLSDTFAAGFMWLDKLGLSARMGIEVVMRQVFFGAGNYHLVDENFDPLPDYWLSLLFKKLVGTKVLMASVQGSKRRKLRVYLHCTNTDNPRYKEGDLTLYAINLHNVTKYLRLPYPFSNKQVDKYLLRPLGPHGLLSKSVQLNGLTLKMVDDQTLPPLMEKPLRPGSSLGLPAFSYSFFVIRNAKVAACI
# [1] = target: T2, Heparanase (Homo sapiens) (UniProt Q9Y251); experiment: Inhibition of HPSE in human HT1080 cells assessed as reduction in HPSE mRNA expression after 24 hrs by qPCR analysis relative to control; type: cell-based
# T2 sequence (whole entry): T1 sequence (Q9Y251 whole entry)
# Homo sapiens [2] = species on record: Homo sapiens; experiment: Anti-invasive activity in human CME1 cells assessed as reduction in invasive potential after 24 hrs by matrigel invasion assay; type: functional, cell-based
# HT-1080 [3] = experiment: Anti-invasive activity in human HT1080 cells assessed as reduction in invasive potential at 10 uM after 24 hrs by matrigel invasion assay relative to control; type: functional; settings: HT-1080, 24 h
# Homo sapiens [4] = species on record: Homo sapiens; experiment: Anti-invasive activity in human CME1 cells assessed as reduction in invasive potential at […] uM after 72 hrs by matrigel invasion assay; type: functional, cell-based
# [5] = target: T2, Heparanase (Homo sapiens); experiment: Inhibition of HPSE in human HT1080 cells assessed as reduction in VEGF mRNA expression after 24 hrs by qPCR analysis relative to control; type: cell-based
# [6] = target: T2, Heparanase (Homo sapiens); experiment: Inhibition of HPSE in human HT1080 cells assessed as reduction in FGF2 mRNA expression after 24 hrs by qPCR analysis relative to control; type: cell-based
# HT-1080 [7] = experiment: Antiproliferative activity against human HT1080 cells after 72 hrs by SRB assay; type: cell-based
# [8] = target: T2, Heparanase (Homo sapiens); experiment: Inhibition of HPSE in human HT1080 cells assessed as reduction in FGF1 mRNA expression after 24 hrs by qPCR analysis relative to control; type: cell-based
# Homo sapiens [9] = species on record: Homo sapiens; experiment: Anti-invasive activity in human CME1 cells assessed as reduction in invasive potential at […] uM after 24 hrs by matrigel invasion assay; type: functional, cell-based
# [10] = target: T2, Heparanase (Homo sapiens); experiment: Inhibition of HPSE in human HT1080 cells assessed as reduction in MMP9 mRNA expression after 24 hrs by qPCR analysis relative to control; type: cell-based
# U-87 MG [11] = experiment: Anti-invasive activity in human U87MG cells assessed as reduction in invasive potential at 10 uM after 24 hrs by matrigel invasion assay relative to control; type: functional, U-87MG ATCC
# U-87 MG [12] = experiment: Antiproliferative activity against human U87MG cells after 72 hrs by SRB assay; type: cell-based, U-87MG ATCC
# U2OS [13] = experiment: Antiproliferative activity against human U2OS cells after 72 hrs by SRB assay; type: cell-based
# U2OS [14] = experiment: Anti-invasive activity in human U2OS cells assessed as reduction in invasive potential at 10 uM after 24 hrs by matrigel invasion assay relative to control; type: functional
# [15] = Antiproliferative activity against HPSE-expressing human CME1 cells after 72 hrs by SRB assay; type: functional
# U2OS [16] = experiment: Anti-invasive activity in human U2OS cells assessed as reduction in invasive potential at 1 uM after 24 hrs by matrigel invasion assay relative to control; type: functional
# HT-1080 [17] = experiment: Anti-invasive activity in human HT1080 cells assessed as reduction in invasive potential at 1 uM after 24 hrs by matrigel invasion assay relative to control; type: functional; settings: HT-1080, 24 h
# U-87 MG [18] = experiment: Anti-invasive activity in human U87MG cells assessed as reduction in invasive potential at 1 uM after 24 hrs by matrigel invasion assay relative to control; type: functional, U-87MG ATCC
# HT-1080 [19] = experiment: Anti-invasive activity in human HT1080 cells assessed as reduction in invasive potential at […] after 24 hrs by matrigel invasion assay relative to control; type: functional, cell-based
smiles,measurement,setting,value
O=C(Cc1ccc2[nH]c(-c3ccc(NC(=O)Nc4ccc(-c5nc6cc(CC(=O)NC(Cc7ccccc7)C(=O)O)ccc6[nH]5)cc4F)c(F)c3)nc2c1)NC(Cc1ccccc1)C(=O)O (configuration not stated),IC50,Heparanase,820 nM
O=C(O)Cc1ccc2oc(-c3ccc(NC(=S)Nc4ccc(-c5nc6cc(CC(=O)O)ccc6o5)cc4F)c(F)c3)nc2c1,IC50,Heparanase,1400 nM
O=C(Cc1ccc2oc(-c3ccc(NC(=O)Nc4ccc(-c5nc6cc(CC(=O)NCB(O)O)ccc6o5)cc4F)c(F)c3)nc2c1)NCB(O)O,IC50,Heparanase,> 10000 nM
Cc1cc2nc(N3CCC(NC(=O)NC4CCN(c5nc6cc(C)c(C)cc6o5)CC4)CC3)oc2cc1C,IC50,Heparanase,> 10000 nM
O=C(O)Cc1ccc2oc(N3CCC(NC(=O)NC4CCN(c5nc6cc(CC(=O)O)ccc6o5)CC4)CC3)nc2c1,IC50,Heparanase,> 10000 nM
O=C(O)Cc1ccc2oc(-c3ccc(NC(=O)Nc4ccc(-c5nc6cc(CC(=O)O)ccc6o5)cc4F)c(F)c3)nc2c1,inhibition,[1],Active
same,Activity,Homo sapiens [2],Dose-dependent effect
same,inhibition at 10 µM,HT-1080 [3],< 50%
same,Activity,Homo sapiens [4],Active
same,inhibition,[5],Active
same,inhibition,[6],Active
same,IC50,HT-1080 [7]; ht-1080,Not Active
same,IC50,Heparanase,180 nM
same,inhibition,[8],Active
same,Activity,Homo sapiens [9],inactive
same,inhibition,[10],Active
same,inhibition at 10 µM,U-87 MG [11],50 to 90%
same,IC50,U-87 MG [12]; u-87mg atcc,Not Active
same,IC50,U2OS [13]; u2os,Not Active
same,inhibition at 10 µM,U2OS [14],50 to 90%
same,IC50,[15],9500 nM
O=C(O)Cc1cccc(NC(=O)c2ccc(CC(=O)Cc3ccc(C(=O)Nc4cccc(CC(=O)O)c4)cc3)cc2)c1,IC50,Heparanase,> 10000 nM
O=C(Nc1ccc(C(=O)Nc2cccc(B(O)O)c2)cc1)Nc1ccc(C(=O)Nc2cccc(B(O)O)c2)cc1,IC50,Heparanase,> 10000 nM
O=C(O)Cc1cccc(NC(=O)c2ccc(NC(=O)Nc3ccc(C(=O)Nc4cccc(CC(=O)O)c4)cc3)cc2)c1,IC50,Heparanase,1760 nM
O=C(O)Cc1ccc2oc(-c3cccc(NC(=O)Nc4cccc(-c5nc6cc(CC(=O)O)ccc6o5)c4)c3)nc2c1,IC50,Heparanase,> 10000 nM
N=C(Nc1ccc(-c2nc3cc(CC(=O)O)ccc3o2)cc1)Nc1ccc(-c2nc3cc(CC(=O)O)ccc3o2)cc1,IC50,Heparanase,6020 nM
CC(C)CC(NC(=O)Cc1ccc2oc(-c3ccc(NC(=O)Nc4ccc(-c5nc6cc(CC(=O)NC(CC(C)C)B(O)O)ccc6o5)cc4F)c(F)c3)nc2c1)B(O)O (configuration not stated),IC50,Heparanase,4870 nM
O=C(Nc1ccc(C(=O)Nc2cccc(C(=O)O)c2)cc1)Nc1ccc(C(=O)Nc2cccc(C(=O)O)c2)cc1,IC50,Heparanase,9170 nM
O=C(O)Cc1cccc(NC(=O)c2ccc(NC(=S)Nc3ccc(C(=O)Nc4cccc(CC(=O)O)c4)cc3F)c(F)c2)c1,IC50,Heparanase,2610 nM
Cc1cc2nc(-c3ccc(NC(=O)Nc4ccc(-c5nc6cc(C)c(C)cc6o5)cc4)cc3)oc2cc1C,IC50,Heparanase,> 10000 nM
O=C(O)Cc1cccc(NC(=O)c2ccc(CC(O)Cc3ccc(C(=O)Nc4cccc(CC(=O)O)c4)cc3)cc2)c1,IC50,Heparanase,> 10000 nM
O=C(Cc1ccc2oc(-c3ccc(NC(=O)Nc4ccc(-c5nc6cc(CC(=O)NC(Cc7ccccc7)C(=O)O)ccc6o5)cc4F)c(F)c3)nc2c1)NC(Cc1ccccc1)C(=O)O (configuration not stated),IC50,HT-1080 [7]; ht-1080,Not Active
same,IC50,Heparanase,720 nM
same,IC50,U-87 MG [12]; u-87mg atcc,Not Active
same,IC50,U2OS [13]; u2os,Not Active
Cc1cc2nc(-c3ccc(NC(=O)Nc4ccc(-c5nc6cc(C)c(C)cc6o5)cc4F)c(F)c3)oc2cc1C,IC50,Heparanase,> 10000 nM
O=C(Cc1ccc2[nH]c(-c3ccc(NC(=O)Nc4ccc(-c5nc6cc(CC(=O)NCB(O)O)ccc6[nH]5)cc4F)c(F)c3)nc2c1)NCB(O)O,IC50,Heparanase,> 10000 nM
COc1ccc(C(=O)Nc2ccc(CNc3ccc(-c4nc5cc(CC(=O)O)ccc5[nH]4)cc3F)cc2)cc1Br,inhibition,[1],Active
same,inhibition,[5],Active
same,inhibition,[6],Active
same,IC50,"HT-1080 [7]; Homo sapiens, HT-1080, 72 h, read-out: IC50",8700 nM
same,inhibition at 1 µM,U2OS [16],50 to 90%
same,inhibition,[8],Active
same,inhibition,[10],Active
same,IC50,"U-87 MG [12]; Homo sapiens, U-87 MG, 72 h, read-out: IC50",2800 nM
same,inhibition at 1 µM,HT-1080 [17],50 to 90%
same,IC50,"U2OS [13]; Homo sapiens, U2OS, 72 h, read-out: IC50",1700 nM
same,inhibition at 1 µM,U-87 MG [18],50 to 90%
O=C(O)Cc1ccc2oc(-c3ccc(NC(=S)Nc4ccc(-c5nc6cc(CC(=O)O)ccc6o5)cc4)cc3)nc2c1,IC50,Heparanase,1810 nM
O=C(O)Cc1ccc(O)c(NC(=O)c2ccc(NC(=O)Nc3ccc(C(=O)Nc4cc(CC(=O)O)ccc4O)cc3)cc2)c1,IC50,Heparanase,2730 nM
O=C(O)Cc1ccc(O)c(NC(=O)c2ccc(CC(O)Cc3ccc(C(=O)Nc4cc(CC(=O)O)ccc4O)cc3)cc2)c1,IC50,Heparanase,> 10000 nM
O=C(O)Cc1ccc2[nH]c(-c3ccc(NC(=O)Nc4ccc(-c5nc6cc(CC(=O)O)ccc6[nH]5)cc4F)c(F)c3)nc2c1,IC50,Heparanase,980 nM
O=C(O)CNC(=O)Cc1ccc2oc(-c3ccc(NC(=S)Nc4ccc(-c5nc6cc(CC(=O)NCC(=O)O)ccc6o5)cc4F)c(F)c3)nc2c1,inhibition,[1]; concentration not given here,< 40%
same,inhibition at 10 µM,HT-1080 [3],50 to 90%
same,inhibition,[5]; concentration not given here,< 40%
same,inhibition,[6],< 40%
same,IC50,HT-1080 [7]; ht-1080,Not Active
same,IC50,Heparanase,80 nM
same,inhibition,[8],< 40%
same,inhibition,[10],< 40%
same,inhibition at 10 µM,U-87 MG [11],50 to 90%
same,IC50,U-87 MG [12]; u-87mg atcc,Not Active
same,inhibition,HT-1080 [19],Active
same,IC50,U2OS [13]; u2os,Not Active
same,inhibition at 10 µM,U2OS [14],< 50%
O=C(O)CNC(=O)Cc1ccc2oc(-c3ccc(NC(=O)Nc4ccc(-c5nc6cc(CC(=O)NCC(=O)O)ccc6o5)cc4F)c(F)c3)nc2c1,inhibition,[1]; concentration not given here,< 40%
same,inhibition at 10 µM,HT-1080 [3],50 to 90%
same,inhibition,[5]; concentration not given here,< 40%
same,inhibition,[6],< 40%
same,IC50,HT-1080 [7]; ht-1080,Not Active
same,IC50,Heparanase,450 nM
same,inhibition,[8],< 40%
same,inhibition,[10],< 40%
same,inhibition at 10 µM,U-87 MG [11],50 to 90%
same,IC50,U-87 MG [12]; u-87mg atcc,Not Active
same,IC50,U2OS [13]; u2os,Not Active
same,inhibition at 10 µM,U2OS [14],< 50%
CC(C)CCNC(=O)Cc1ccc2oc(-c3ccc(NC(=O)Nc4ccc(-c5nc6cc(CC(=O)NCCC(C)C)ccc6o5)cc4F)c(F)c3)nc2c1,IC50,Heparanase,> 10000 nM
O=C(O)CNC(=O)Cc1ccc2[nH]c(-c3ccc(NC(=O)Nc4ccc(-c5nc6cc(CC(=O)NCC(=O)O)ccc6[nH]5)cc4F)c(F)c3)nc2c1,IC50,Heparanase,> 10000 nM
O=C(O)Cc1cccc(NS(=O)(=O)c2ccc(NC(=O)Nc3ccc(S(=O)(=O)Nc4cccc(CC(=O)O)c4)cc3)cc2)c1,IC50,Heparanase,> 10000 nM
CC(NC(=O)Cc1ccc2oc(-c3ccc(NC(=O)Nc4ccc(-c5nc6cc(CC(=O)NC(C)C(=O)O)ccc6o5)cc4F)c(F)c3)nc2c1)C(=O)O (configuration not stated),inhibition at 10 µM,HT-1080 [3],< 50%
same,IC50,HT-1080 [7]; ht-1080,Not Active
same,IC50,Heparanase,370 nM
same,inhibition at 10 µM,U-87 MG [11],50 to 90%
same,IC50,U-87 MG [12]; u-87mg atcc,Not Active
same,IC50,U2OS [13]; u2os,Not Active
same,inhibition at 10 µM,U2OS [14],< 50%
O=C(O)Cc1ccc2oc(-c3ccc(NC(=O)Nc4ccc(-c5nc6cc(CC(=O)O)ccc6o5)cc4)cc3)nc2c1,IC50,HT-1080 [7]; ht-1080,Not Active
same,IC50,Heparanase,3200 nM
same,IC50,U-87 MG [12]; u-87mg atcc,Not Active
same,IC50,U2OS [13]; u2os,Not Active
O=C(O)Cc1ccc2[nH]c(-c3ccc(NC(=S)Nc4ccc(-c5nc6cc(CC(=O)O)ccc6[nH]5)cc4F)c(F)c3)nc2c1,IC50,Heparanase,990 nM
